According to patent US7294630B2, “Piperazinyl piperidine tachykinin antagonists” (SmithKline Beecham Corporation, priority 2000, dated 2007):
Structures can show the parent of a compound that is named as a salt.

What was measured:
[1] = target: T1, recombinant human NK1 receptors expressed in Chinese Hamster Ovary (CHO) cell membranes (Homo sapiens, UniProt P25103); test: NK1-receptor binding affinity, displacement of [3H]-substance P; conditions: average of at least two determinations, [3H]substance P displacement; for Ki: read-out: pki (negative logarithm of the inhibition constant Ki) (converted)
T1 construct: expressed in transfected cells; host or cells: Chinese Hamster Ovary (CHO) cells, membrane preparation
Method: CHO cell membranes were prepared by using a modification of the method described by Dam T and Quirion R (Peptides, 7:855-864, 1986). Thus ligand binding was performed in 0.4 ml of 50 mM HEPES, pH 7.4, containing 3 mM MnCl2, 0.02% BSA, 0.5 nM [^3H]Substance P (30÷56 Ci/mmol, Amersham), a final membrane concentration of 25 μg of protein/ml, and the test compounds. The incubation proceeded at room temperature for 40 min.
The affinity of the compound of the invention for NK1 receptor was determined using the NK1-receptor binding affinity method measuring in vitro by the compounds' ability to displace [3H]—substance P (SP) from recombinant human NK1 receptors expressed in Chinese Hamster Ovary (CHO) cell membranes. The affinity values are expressed as negative logarithm of the inhibition constant (Ki) of displacer ligands (pKi).

NK1 receptor = target: T2, NK1 receptor (Meriones unguiculatus, UniProt Q5DUB1); test: gerbil foot tapping model (NK1 agonist icv); type: in vivo; conditions: read-out: ED50 (dose required to inhibit by 50% the tapping induced by the NK1 agonist), oral administration, four hours before NK1 agonist 3 pmol icv
T2 construct: from tissue; host or cells: living gerbil, central nervous system (NK1 agonist infused into the cerebral ventricles)
Text: The action of the compounds of the invention at the NK1 receptor may be determined by using conventional tests.
The ability of the compounds of the invention to penetrate the central nervous system and to bind at the nk1 receptor may be determined using the gerbill foot tapping model as described by Rupniak & Williams, Eur. Jour. of Pharmacol., 1994.
The compound was orally administered and four hours later an NK1 agonist (e.g. delta-Aminovaler^6[Pro^9,Me-Leu^10]-substance P (7-11)) (3 pmol in 5 μicv) was infused directly in the cerebral ventricules of the animals. The duration of hind foot tapping induced by the NK1 agonist (e.g. delta-Aminovalery^6[Pro^9,Me-Leu^10]-substance P (7-11)) was recorded continuously for 3 min using a stopclock. […] Alternatively the compounds may be administered subcutaneously or intraperitoneally.

T2 sequence (Q5DUB1 whole entry, the tested form may be a part): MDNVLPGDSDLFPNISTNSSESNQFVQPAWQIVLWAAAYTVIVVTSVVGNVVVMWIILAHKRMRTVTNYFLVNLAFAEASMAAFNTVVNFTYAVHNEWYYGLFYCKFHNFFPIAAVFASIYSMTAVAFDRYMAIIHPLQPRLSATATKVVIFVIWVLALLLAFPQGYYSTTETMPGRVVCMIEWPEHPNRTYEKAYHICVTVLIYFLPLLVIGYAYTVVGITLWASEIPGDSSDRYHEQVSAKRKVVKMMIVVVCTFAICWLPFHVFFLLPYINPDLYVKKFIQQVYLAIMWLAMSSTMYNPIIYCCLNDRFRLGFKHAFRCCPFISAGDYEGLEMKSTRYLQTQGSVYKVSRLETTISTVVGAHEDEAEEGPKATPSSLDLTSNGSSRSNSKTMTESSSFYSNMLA
T1 sequence (P25103 whole entry): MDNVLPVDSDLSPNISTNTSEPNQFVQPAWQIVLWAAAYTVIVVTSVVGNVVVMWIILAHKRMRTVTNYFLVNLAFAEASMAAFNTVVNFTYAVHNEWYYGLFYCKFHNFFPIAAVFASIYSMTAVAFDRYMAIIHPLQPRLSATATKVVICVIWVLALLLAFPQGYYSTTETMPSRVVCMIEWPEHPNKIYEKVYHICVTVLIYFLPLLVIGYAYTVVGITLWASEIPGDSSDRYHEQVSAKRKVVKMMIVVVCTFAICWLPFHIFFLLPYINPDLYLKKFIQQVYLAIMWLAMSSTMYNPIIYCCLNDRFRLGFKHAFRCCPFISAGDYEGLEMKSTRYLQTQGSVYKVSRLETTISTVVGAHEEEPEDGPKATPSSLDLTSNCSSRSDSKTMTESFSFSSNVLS

Molecule `CC(=O)N1CCN([C@@H]2CCN(C(=O)N(C)Cc3cc(C(F)(F)F)cc(C(F)(F)F)c3)[C@@H](c3ccc(F)cc3C)C2)CC1` [Example 7a, 4-(R)-(4-Acetyl-piperazin-1-yl)-2-(R)-(4-fluoro-2-methyl-phenyl)-piperidine-1-carboxylic acid, (3,5-bis-trifluoromethyl-benzyl)-methylamide hydrochloride] has a Ki [1] of 0.708 nM.
`CC(=O)N1CCN([C@H]2CCN(C(=O)N(C)[C@H](C)c3cc(C(F)(F)F)cc(C(F)(F)F)c3)[C@@H](c3ccc(F)cc3C)C2)CC1.Cl` [Example 3, 4-(S)-(4-Acetyl-piperazin-1-yl)-2-(R)-(4-fluoro-2-methyl-phenyl)-piperidine-1-carboxylic acid, [1-(R)-(3,5-bis-trifluoromethyl-phenyl)-ethyl]-methylamide hydrochloride] gave an ED50 (NK1 receptor) of 0.05 mg/kg.
With “2-(R)-(4-Fluoro-2-methyl-phenyl)-4-(S)-piperazin-1-yl-piperidine-1-carboxylic acid, [1-(R)-(3,5-bis-trifluoromethyl-phenyl)-ethyl]-methylamide hydrochloride [Example 9]” the “pki (negative logarithm of the inhibition constant Ki)” value [1] was 9.93.
Molecule `Cc1cc(F)ccc1[C@H]1C[C@@H](N2CCN(C(=O)N(C)C)CC2)CCN1C(=O)N(C)Cc1cc(C(F)(F)F)cc(C(F)(F)F)c1` [Example 15, 4-(S)-[1-[(3,5-Bis-trifluoromethyl-benzyl)-methyl-carbamoyl]-2-(R)-(4-fluoro-2-methyl-phenyl)-piperidin-4-yl]-piperazine-1-carboxylic acid, dimethylamide hydrochloride] has a Ki [1] of 0.0457 nM.
`CC(=O)N1CCN([C@H]2CCN(C(=O)N(C)Cc3cc(C(F)(F)F)cc(C(F)(F)F)c3)[C@@H](c3ccc(F)cc3C)C2)CC1.Cl` [Example 7b, 4-(S)-(4-Acetyl-piperazin-1-yl)-2-(R)-(4-fluoro-2-methyl-phenyl)-piperidine-1-carboxylic acid, (3,5-bis-trifluoromethyl-benzyl)-methylamide hydrochloride] showed an ED50 (NK1 receptor) of 0.19 mg/kg and a Ki [1] of 0.0741 nM.
With `Cc1cc(F)ccc1[C@H]1CC(N2CCN(C)CC2)CCN1C(=O)N(C)Cc1cc(C(F)(F)F)cc(C(F)(F)F)c1.Cl.Cl` (mixture of isomers) [Example 10, 2-(R)-(4-Fluoro-2-methyl-phenyl)-4-(R,S)-(4-methyl-piperazin-1-yl)-piperidine-1-carboxylic acid, (3,5-bis-trifluoromethyl-benzyl)-methylamide dihydrochloride] the Ki [1] was 0.115 nM and the melting point was 208 to 209 °C.
Work on `Cc1cc(F)ccc1[C@H]1C[C@@H](N2CCN(C(=O)C(C)C)CC2)CCN1C(=O)N(C)[C@H](C)c1cc(C(F)(F)F)cc(C(F)(F)F)c1` [Example 14, 4-(S)-[4-(2-Methyl-propanoyl)-piperazin-1-yl]-2-(R)-(4-fluoro-2-methyl-phenyl)-piperidine-1-carboxylic acid, [1-(R)-(3,5-bis-trifluoromethyl-phenyl)-ethyl]-methylamide hydrochloride] yielded a Ki [1] of 0.1 nM.
Work on `CNC(=O)N1CCN([C@H]2CCN(C(=O)N(C)Cc3cc(C(F)(F)F)cc(C(F)(F)F)c3)[C@@H](c3ccc(F)cc3C)C2)CC1` [Example 16, 4-(S)-[1-[(3,5-Bis-trifluoromethyl-benzyl)-methyl-carbamoyl]-2-(R)-(4-fluoro-2-methyl-phenyl)-piperidin-4-yl]-1-carboxylic acid, methylamide hydrochloride] yielded a Ki [1] of 0.0437 nM.
Molecule `Cc1cc(F)ccc1[C@H]1C[C@@H](N2CCN(C(=O)C3CC3)CC2)CCN1C(=O)N(C)[C@H](C)c1cc(C(F)(F)F)cc(C(F)(F)F)c1.Cl` [Example 12, 4-(S)-(4-Cyclopropanoyl-piperazin-1-yl)-2-(R)-(4-fluoro-2-methyl-phenyl)-piperidine-1-carboxylic acid, [1-(R)-(3,5-bis-trifluoromethyl-phenyl)-ethyl]-methylamide hydrochloride] has an ED50 (NK1 receptor) of 0.27 mg/kg and a Ki [1] of 0.123 nM.
Work on `Cc1cc(F)ccc1[C@H]1CC(N2CCN(C)CC2)CCN1C(=O)N(C)[C@H](C)c1cc(C(F)(F)F)cc(C(F)(F)F)c1` (mixture of isomers) [Example 8, 2-(R)-(4-Fluoro-2-methyl-phenyl)-4-(R,S)-(4-methyl-piperazin-1-yl)-piperidine-1-carboxylic acid, [1-(R)-(3,5-bis-trifluoromethyl-phenyl)-ethyl]-methylamide hydrochloride] yielded a Ki [1] of 0.209 nM.
For `CC(=O)N1CCN([C@H]2CCN(C(=O)N(C)[C@H](C)c3cc(C(F)(F)F)cc(C(F)(F)F)c3)[C@@H](c3ccc(F)cc3)C2)CC1` [Example 19, 4-(S)-(4-Acetyl-piperazin-1-yl)-2-(R)-(4-fluoro-phenyl)-piperidine-1-carboxylic acid, [1-(R)-(3,5-bis-trifluoromethyl-phenyl)-ethyl]-methylamide hydrochloride], the Ki [1] was 0.417 nM.
